Consider 34 compounds from US7868204B2, “Inhibitors of histone deacetylase” (MethylGene Inc., priority 2001, dated 2011).

Molecules are shown by their SMILES. Where two headings read alike, the source gives them in different places.

Experiment [1] relates to acetylated histone H-4 in T24 human bladder cancer cells. Description: Histone H4 acetylation in whole cells by immunoblots. Format: cell-based. To be noted: 16 h. As for the experimental part: T24 human bladder cancer cells growing in culture were incubated with HDAC inhibitors for 16 h. […] of total histone protein was loaded onto SDS/PAGE and transferred to nitrocellulose membranes. Membranes were probed with polyclonal antibodies specific for acetylated histone H-4 (Upstate Biotech Inc.), followed by horse radish peroxidase conjugated secondary antibodies (Sigma). Enhanced Chemiluminescence (ECL) (Amersham) detection was performed using Kodak films (Eastman Kodak). Acetylated H-4 signal was quantified by densitometry.

Experiment [2] concerns the target T1, cloned recombinant human HDAC-1 (Homo sapiens, UniProt Q13547).
T1 construct: made in house; host or cells: Baculovirus insect cell expression system
The experiment in a line: Human HDAC-1 enzyme inhibition, Assay 1 ([3H]-acetylated histone substrate, scintillation counting). Format: biochemical. As to conditions: read-out: Human HDAC-1 IC50. The essentials:
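Recombinant human HDAC-1 from baculovirus-infected insect cells, preincubated with compound 30 min at 4° C. before reaction. Released [3H]-acetic acid extracted with ethyl acetate and counted by scintillation. IC50 taken from dose-response curves as concentration giving half-maximal inhibition.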

For experiment [3], the system named is HCT116 cells. Description: MTT assay. The format is cell-based. To be noted: Homo sapiens, HCT-116, 72 h, HCT116 cells, 72 hours. The essentials: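 Cells plated one day before dosing, then exposed to compound 72 h at 37 °C, 5% CO2. MTT at 0.5 mg/ml final for 4 h, solubilized in DMF/SDS buffer pH 4.7; OD converted to cell number from a standard growth curve.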

The mark [4] stands for this setting: T-24, Table 5a, read-out: H4Ac (T24) EC50.
The mark [5] stands for this setting: T-24, Table 5c, read-out: H4Ac (T24) EC50.
Where [6] appears, read: T-24, Table 5E, read-out: H4 Ac (T24) EC50.
Setting [7] is: T-24, Table 5F, read-out: H4 Ac (T24) EC50.

T1 sequence (Q13547 whole entry): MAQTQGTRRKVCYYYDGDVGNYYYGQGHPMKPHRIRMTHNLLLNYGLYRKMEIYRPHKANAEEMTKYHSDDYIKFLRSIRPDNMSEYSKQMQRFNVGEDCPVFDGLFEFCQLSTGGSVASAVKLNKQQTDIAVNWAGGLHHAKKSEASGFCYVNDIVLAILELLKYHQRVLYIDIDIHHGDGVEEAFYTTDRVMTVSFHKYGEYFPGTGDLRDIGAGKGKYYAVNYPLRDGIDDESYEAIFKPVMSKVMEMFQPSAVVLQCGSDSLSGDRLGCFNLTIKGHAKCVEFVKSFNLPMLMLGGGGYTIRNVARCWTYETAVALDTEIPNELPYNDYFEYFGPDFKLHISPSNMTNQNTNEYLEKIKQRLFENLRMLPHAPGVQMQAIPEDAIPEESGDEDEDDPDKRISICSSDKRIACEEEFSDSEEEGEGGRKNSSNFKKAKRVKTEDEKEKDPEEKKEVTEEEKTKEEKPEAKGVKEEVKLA

As usually defined, the EC50 is the concentration at which the effect is half-maximal. The IC50 is the concentration that inhibits the measured activity by half. In the case of `COc1cc(Nc2nc(N)nc(NCc3ccc(C(=O)Nc4ccccc4N)cc3)n2)cc(OC)c1OC` [Cpd 21, N-(2-Amino-phenyl)-4-{[4-amino-6-(3,4,5-trimethoxy-phenylamino)-[1,3,5]triazin-2-ylamino]-methyl}-benzamide], in experiment [1] (setting [4]), the EC50 stood at 25 µM. Besides, the IC50 in experiment [2] (Table 5a) and in experiment [3] (Table 5a) was 4000 nM each time.
Regarding `Nc1nc(NCc2ccc(C(=O)Nc3ccccc3N)cc2)nc(N2CCc3ccccc32)n1` [Cpd 22, 4-{[4-Amino-6-(2,3-dihydro-indol-1-yl)-[1,3,5]triazin-2-ylamino]-methyl}-N-(2-amino-phenyl)-benzamide], the EC50 in experiment [1] (setting [4]) amounted to 1 µM. The IC50 in experiment [2] (Table 5a) is 3000 nM; in experiment [3] (Table 5a), 800 nM.
On the same counts, the results for `COc1ccccc1CCNc1nc(N)nc(NCc2ccc(C(=O)Nc3ccccc3N)cc2)n1` [Cpd 23, 4-({4-Amino-6-[2-(2-methoxy-phenyl)-ethylamino]-[1,3,5]triazin-2-ylamino}-methyl)-N-(2-amino-phenyl)-benzamide] are 1 µM, 2000 nM and 700 nM.
For the compound `Nc1nc(NCCc2ccccc2F)nc(NCc2ccc(C(=O)Nc3ccccc3N)cc2)n1` [Cpd 24, 4-({4-Amino-6-[2-(2-fluoro-phenyl)-ethylamino]-[1,3,5]triazin-2-ylamino)-methyl)-N-(2-amino-phenyl)-benzamide], in experiment [1] (setting [4]), the concentration for a half-maximal effect (EC50) was determined as 1 µM. Moreover, the IC50 is 3000 nM in experiment [2] (Table 5a) and 600 nM in experiment [3] (Table 5a).
In the same order, the values of `Nc1ccccc1NC(=O)c1ccc(CNc2nc(NCc3ccccc3)nc(NC3Cc4ccccc4C3)n2)cc1` [Cpd 25] are 5 µM, 800 nM and 300 nM.
In the same order, the values of `Nc1nc(NCc2ccc(C(=O)Nc3ccccc3N)cc2)nc(N2Cc3ccccc3C2)n1` [Cpd 28] are 1 µM, 2000 nM and 500 nM.
On the same counts, the results for `Nc1nc(NCc2ccccc2)nc(NCc2ccc(C(=O)Nc3ccccc3N)cc2)n1` [Cpd 29, 4-[(4-Amino-6-benzylamino-[1,3,5]triazin-2-ylamino)-methyl]-N-(2-amino-phenyl)-benzamide] are 1 µM, 2000 nM and 2000 nM.
`Nc1ccccc1NC(=O)c1ccc(CNc2nc(NCc3cccnc3)nc(NC3Cc4ccccc4C3)n2)cc1` [Cpd 30]: the EC50 in experiment [1] (setting [4]) was determined as 1 µM. For the same compound, the IC50 is 1000 nM in experiment [2] (Table 5a) and 3000 nM in experiment [3] (Table 5a).
Take `Nc1ccccc1NC(=O)/C=C/c1ccc(NC(=O)OCc2cccnc2)cc1` [Cpd 55b]: the EC50 in experiment [1] (setting [5]) amounted to 3 µM. In addition, the IC50 amounted to 3000 nM in experiment [2] (Table 5c) and 8000 nM in experiment [3] (Table 5c).
With `Nc1nc(NCc2ccc(/C=C/C(=O)Nc3ccccc3N)cc2)nc(NC2Cc3ccccc3C2)n1` [Cpd 83], the EC50 in experiment [1] (setting [4]) amounted to 5 µM. The IC50 in experiment [2] (Table 5a) stood at 3000 nM; in experiment [3] (Table 5a), 5000 nM.
As for `Nc1ccccc1NC(=O)/C=C/c1ccc(NCc2cccnc2)nc1` [Cpd 90, N-(2-aminophenyl)-3-{6-[(pyridin-3-ylmethyl)-amino]-pyridin-3-yl}-acrylamide], the EC50 in experiment [1] (setting [5]) worked out at 5 µM. Besides, the IC50 in experiment [2] (Table 5c) was found to be 10000 nM; in experiment [3] (Table 5c), 5000 nM.
On the same counts, the results for `COc1ccc(CCNc2ccc(/C=C/C(=O)Nc3ccccc3N)cn2)cc1` [Cpd 95, N-(2-aminophenyl)-3-{6-[2-(4-methoxy-phenyl)-ethylamino]-pyridin-3-yl}-acrylamide] are 10 µM, 3000 nM and 2000 nM.
On the same counts, the results for `Nc1ccccc1NC(=O)/C=C/c1ccc(NCc2cc(F)cc(F)c2)nc1` [Cpd 100, N-(2-aminophenyl)-3-[6-(3,5-difluoro-benzylamino)-pyridin-3-yl]-acrylamide] are 5 µM, 4000 nM and 3000 nM.
On the same counts, the results for `Nc1ccccc1NC(=O)/C=C/c1ccc(NCc2cccc(C(F)(F)F)c2)nc1` [Cpd 101, N-(2-aminophenyl)-3-[6-(3-trifluoromethyl-benzylamino)-pyridin-3-yl]-acrylamide] are 5 µM, 3000 nM and 900 nM.
Regarding `Nc1ccccc1NC(=O)/C=C/c1ccc(CNC(=O)OCc2cccnc2)cc1` [Cpd 104], the EC50 in experiment [1] (setting [5]) came out at 5 µM. Further, the IC50 stood at 10000 nM in experiment [2] (Table 5c) and 9000 nM in experiment [3] (Table 5c).
With `COc1ccc(NCc2ccc(/C=C/C(=O)Nc3ccccc3N)cc2)cn1` [Cpd 109, N-(2-Amino-phenyl)-3-{4-[(6-methoxy-pyridin-3-ylamino)-methyl]-phenyl}-acrylamide], in experiment [1] (setting [5]), the EC50 was 15 µM. Also, the IC50 in experiment [2] (Table 5c) is 5000 nM; in experiment [3] (Table 5c), 8000 nM.
With `Nc1ccccc1NC(=O)/C=C/c1ccc(NC/C=C/c2ccccc2)nc1` [Cpd 112], the EC50 in experiment [1] (setting [5]) was 5 µM. Moreover, the results for the IC50 in experiment [2] (Table 5c) and in experiment [3] (Table 5c) were 2000 nM and 5000 nM, respectively.
For the compound `Nc1ccccc1NC(=O)c1ccc(CSc2nc3ccc(NCCN4CCOCC4)cc3s2)cc1` [Cpd 128, N-(2-Amino-phenyl)-4-[6-(2-morpholin-4-yl-ethylamino)-benzothiazol-2-ylsulfanylmethyl]-benzamide], the EC50 in experiment [1] (setting [6]) stood at 5 µM. Moreover, the IC50 worked out at 1000 nM in experiment [2] (Table 5E) and 300 nM in experiment [3] (Table 5E).
In the same order, the values of `Nc1ccccc1NC(=O)c1ccc(CSc2ccc3ccccc3n2)cc1` [Cpd 131, N-(2-Amino-phenyl)-4-(quinolin-2-ylsulfanylmethyl)-benzamide] are 2 µM, 300 nM and 900 nM.
As to `Cn1ccnc1SCc1ccc(C(=O)Nc2ccccc2N)cc1` [Cpd 139, N-(2-Amino-phenyl)-4-(1-methyl-1H-imidazol-2-ylsulfanylmethyl]-benzamide], the EC50 in experiment [1] (setting [6]) was 5 µM. Besides, the IC50 in experiment [2] (Table 5E) and in experiment [3] (Table 5E) was 3000 nM each time.
For `Nc1ccccc1NC(=O)c1ccc(CN2C(=O)c3ccccc3C2=O)cc1` [Cpd 149, N-(2-Amino-phenyl)-4-(1,3-dioxo-1,3-dihydro-isoindol-2-ylmethyl)-benzamide], the EC50 in experiment [1] (setting [6]) came out at 5 µM. Besides, the IC50 in experiment [2] (Table 5E) was 1000 nM; in experiment [3] (Table 5E), 5000 nM.
Take `Nc1ccccc1NC(=O)c1ccc(Cn2nnc3ccccc3c2=O)cc1` [Cpd 155, N-(2-Amino-phenyl)-4-(4-oxo-4H-benzo[d][1,2,3]triazin-3-ylmethyl)-benzamide]: the EC50 in experiment [1] (setting [6]) was found to be 1 µM. Moreover, the IC50 in experiment [2] (Table 5E) and in experiment [3] (Table 5E) was 400 nM in each case.
For the compound `COc1cccc(-c2ccc(C(=O)Nc3ccccc3N)cc2)c1` [Cpd 166], the EC50 in experiment [1] (setting [6]) stood at 5 µM. For the same compound, the figures for the IC50 in experiment [2] (Table 5E) and in experiment [3] (Table 5E) were 2000 nM and 5000 nM, respectively.
`COc1cc(OC)nc(NCc2ccc(C(=O)Nc3ccccc3N)cc2)n1` [Cpd 169]: in experiment [1] (setting [6]), the EC50 was determined as 1 µM. Further, the figures for the half-maximal inhibitory concentration (IC50) in experiment [2] (Table 5E) and in experiment [3] (Table 5E) were 300 nM and 700 nM, respectively.
On the same counts, the results for `COc1ccc(CSc2ccc(C(=O)Nc3ccccc3N)cn2)cc1` [Cpd 171] are 25 µM, 8000 nM and 3000 nM.
For `Nc1ccccc1NC(=O)c1ccc(CSc2nc3ccccc3s2)cc1` [Cpd 172], the EC50 in experiment [1] (setting [6]) stood at 3 µM. Besides, the results for the IC50 in experiment [2] (Table 5E) and in experiment [3] (Table 5E) were 400 nM and 1000 nM, respectively.
For the compound `Nc1ccccc1NC(=O)c1ccc(NCCc2ccc(F)cc2)nc1` [Cpd 174], the EC50 in experiment [1] (setting [6]) was 5 µM. The IC50 in experiment [2] (Table 5E) is 4000 nM; in experiment [3] (Table 5E) it was 400 nM.
On the same counts, the results for `Nc1ccccc1NC(=O)c1ccc(NCc2ccc(F)cc2)nc1` [Cpd 175] are 3 µM, 4000 nM and 500 nM.
Regarding `Nc1ccccc1NC(=O)c1ccc(CSc2nnc(-c3ccccc3)o2)cc1` [Cpd 177], the EC50 in experiment [1] (setting [6]) worked out at 1 µM. Further, the half-maximal inhibitory concentration (IC50) in experiment [2] (Table 5E) is 1000 nM; in experiment [3] (Table 5E) it was 400 nM.
On to `Nc1ccccc1NC(=O)c1ccc(Cn2c(=O)oc3ccccc3c2=O)cc1` [Cpd 179], for which, in experiment [1] (setting [7]), the EC50 stood at 1 µM. Moreover, the IC50 in experiment [2] (Table 5F) was 1000 nM; in experiment [3] (Table 5F), 300 nM.
For the compound `CCC1(C)CC(=O)N(Cc2ccc(C(=O)Nc3ccccc3N)cc2)C(=O)C1` [Cpd 180], the EC50 in experiment [1] (setting [7]) was found to be 5 µM. Besides, the IC50 in experiment [2] (Table 5F) is 3000 nM; in experiment [3] (Table 5F), 2000 nM.
On the same counts, the results for `CCn1c(=O)n(Cc2ccc(C(=O)Nc3ccccc3N)cc2)c(=O)c2ccccc21` [Cpd 181] are 1 µM, 500 nM and 400 nM.
In the same order, the values of `Nc1ccccc1NC(=O)c1ccc(-c2cccc(CNC3Cc4ccccc4C3)c2)cc1` [Cpd 186] are 2 µM, 2000 nM and 2000 nM.
As for `Nc1ccccc1NC(=O)c1ccc(-c2cccc(CNCc3ccccn3)c2)cc1` [Cpd 187], the EC50 in experiment [1] (setting [7]) came to 2 µM. Besides, the IC50 in experiment [2] (Table 5F) is 2000 nM; in experiment [3] (Table 5F), 5000 nM.
